Measured values taken from PMC12730333 (Biology, 2025).
Marks after values point to notes of the source that are not given here.

Assays:
[1] = system: ex vivo amastigote forms of L. amazonensis LTB0016 strain; test: Leishmanicidal activity assay on ex vivo amastigotes (Alamar Blue, 24 h); details: Leishmania amazonensis, 24 h, read-out: IC50 Ama.
Excerpt: Ex vivo amastigote forms of L. amazonensis (MHOM/BR/77/LTB0016) were harvested and purified from lesions of male BALB/c mice. For this, a suspension containing 10^6 amastigotes was inoculated subcutaneously into the intraplantar region of the hind paw. After 30 days, the animals were euthanized, and their paws were excised and rinsed in 70% ethanol. The epidermis and necrotic tissues were mechanically dissociated. Subsequently, the paws were placed in Petri dishes containing RPMI 1640 medium supplemented with 5% FBS and 2% Pen/Str. […] The supernatant was transferred to another tube, homogenized with a syringe, and centrifuged at 764× g for another 15 min. The supernatant was discarded, and the pellet was resuspended in RPMI 1640 medium [69].
Promastigotes were kept at 26 °C, whereas amastigotes were kept at 32 °C. After 24 h, parasite viability was assessed using the AB colorimetric method, and the data were analyzed using a spectrophotometer as previously described [74]. […] Wells with medium and without parasites were used as blanks, and wells with medium and untreated parasites were used as negative controls. MT was employed as the reference drug.

[2] = system: Leishmania amazonensis promastigote forms (PH8 strain)
[3] = Cytotoxicity assay (Alamar Blue, 24 h) on L929 fibroblasts; format: cell-based, murine; details: mouse, L929 fibroblasts
Experimental: (§1) HepG2 cells (human hepatocellular carcinoma), VERO cells (African green monkey kidney), and J774.G8 macrophages (murine reticulosarcoma) were maintained in DMEM medium, supplemented with 10% FBS, 1% Pen/Str at 37 °C and 5% CO2 [70, 71]. For the cultivation of L929 fibroblasts (murine fibrosarcoma), RPMI 1640 medium without phenol red, supplemented with 2 mM L-glutamine, 10% FBS, and 1% Pen/Str, was used and maintained under the same conditions of temperature and CO2 as above.
(§2) J774.G8, VERO (10^5 cells/well), HepG2, L929 (0.5 × 10^5 cells/well) cells, and MPMs (3 × 10^5 cells/well) were centrifuged, resuspended in medium, plated in 96-well microplates, and incubated for 24 h under cultivation conditions. Subsequently, they were exposed to different concentrations of the compounds, serially diluted in medium to a final volume of 100 µL/well, and incubated for 24 h at 37 °C and 5% CO2. Cell viability was then assessed using the AB, and data were acquired by spectrophotometry. […] Untreated cells were used as negative controls, and cells exposed to the reference compound (MT) were used as positive controls. The Selectivity Index (SI) was calculated using the ratio SI = CC50 (mammalian cells)/IC50 (promastigote or amastigote forms of L. amazonensis).

[4] = system: promastigote forms of Leishmania amazonensis PH8 strain; test: Leishmanicidal activity assay on promastigotes (Alamar Blue, 24 h); format: cell-based; details: Leishmania amazonensis, 10^6 parasites/mL
Experimental: Promastigote forms of Leishmania amazonensis (IFLA/BR/1967/PH8) were obtained from the Instituto Oswaldo Cruz Leishmania collection (CLIOC/Fiocruz). These cultures were maintained in Schneider’s Insect Medium, supplemented with 20% FBS and 1 μL/mL of Pen/Str at 26 °C. In vitro passages were conducted weekly, with promastigotes harvested during the late logarithmic phase for experiments on the 5th day of growth (Figure S1A).
MT was employed as the reference drug.

[5] = system: ex vivo amastigote forms of L. amazonensis LTB0016 strain; test: ROS production by flow cytometry, H2DCFDA, ex vivo amastigotes; format: cell-based, Leishmania amazonensis; details: exposed to IC50 (AA 10 µM), 24 h
[6] = Cytotoxicity assay (Alamar Blue, 24 h) on J774.G8 macrophages; format: cell-based, murine; details: mouse, J774.G8 macrophages
Experimental: as §1, §2

[7] = Cytotoxicity assay (Alamar Blue, 24 h) on murine peritoneal macrophages; format: cell-based, Swiss Webster mice; details: male, Swiss Webster, mouse, murine peritoneal macrophages (MPMs, primary cells), 3 × 10^5 cells/well
Experimental: Murine peritoneal macrophages—MPMs (primary cells)—were isolated from male Swiss Webster mice stimulated with 1 mL of 3% Brewer’s thioglycollate medium, administered intraperitoneally. After 96 h, the animals were euthanized, and the MPMs were collected by peritoneal lavage with approximately 10 mL of RPMI 1640 medium. The cell suspension was centrifuged at 382× g for 10 min, and the pellet was resuspended in medium supplemented with 5% FBS, 1% Pen/Str, and 2 mM L-glutamine. All cell cultures were maintained at 37 °C and 5% CO2 [73]. For the experiments, all cell types were cultured until confluency.
as §2

L. amazonensis = system: L. amazonensis; parameters: method as in Cabral et al. 136; details: MB treatment with PDT; ref Cabral et al. 136; cited from earlier work
promastigotes = details: MB without light treatment; cited from earlier work
[8] = system: promastigote forms of Leishmania amazonensis PH8 strain; test: Cell death by flow cytometry, Annexin V/PI, promastigotes; details: 200 μM, 24 h, preliminary assay (Figure S5); control 99.81%
[9] = Cytotoxicity assay (Alamar Blue, 24 h) on VERO cells; format: cell-based, African green monkey; details: African green monkey, VERO cells
Experimental: as §1, §2

[10] = system: promastigote forms of Leishmania amazonensis PH8 strain; test: ROS production by flow cytometry, H2DCFDA, promastigotes; format: cell-based; details: exposed to IC50 (AA 10 µM), 24 h
[11] = system: ex vivo amastigote forms of Leishmania amazonensis LTB0016 strain; test: Cell death by flow cytometry, 7-AAD, ex vivo amastigotes; details: IC50, 24 h, mean ± SD
[12] = system: promastigote forms of Leishmania amazonensis PH8 strain; test: Mitochondrial membrane potential (ΔΨm) by flow cytometry, TMRE, promastigotes; details: exposed to IC50, 24 h
[13] = system: promastigote forms of Leishmania amazonensis PH8 strain; test: Preliminary MB concentration assessment on promastigotes, Neubauer chamber counting, 72 h; format: cell-based; details: 3.13–200 μM tested
Experimental: Deyvison Rhuan Vasco-dos-Santos, Juliana Almeida-Silva, Ludmila Ferreira de Almeida Fiuza,
Natalia Vacani-Martins, Zênis Novais da Rocha, Maria de Nazaré Correia Soeiro, Andrea Henriques-Pons,
Eduardo Caio Torres-Santos and Marcos André Vannier-Santos
Evaluation of parasite proliferation after 24 h (B2), 48 h (B3), and 72 h (B4) are shown. Viability was
assessed by counting in a Neubauer chamber. Data represents mean ± SD. (*) p < 0.05 when
compared to negative control by ANOVA and Tukey’s post-test. […]

[14] = system: ex vivo amastigote forms of L. amazonensis LTB0016 strain; test: Mitochondrial membrane potential (ΔΨm) by flow cytometry, TMRE, ex vivo amastigotes
[15] = Cytotoxicity assay (Alamar Blue, 24 h) on HepG2 cells; format: cell-based, human; details: human, HepG2 cells
Experimental: as §1, §2

HepG2 cells = test: as above; format: cell-based, human; details: 0.5 × 10^5 cells/well
Experimental: as §1, §2

[16] = system: fibroblasts and macrophages; parameters: method as in PMID 38917757; details: MB without light treatment; cited from earlier work
[17] = lower concentrations (37–100 μM)
[18] = exposed to IC50, 24 h, (MT − MC)/MC

## CN(C)c1ccc2nc3ccc(=[N+](C)C)cc-3sc2c1 [MB, methylene blue, reference compound]
[1]
  IC50: 15.7 ± 2.23 µM
[2]; exposed to IC50
  proliferation of promastigotes over 24 to 168 h: total inhibition from 96 h
[2]; exposed to IC50, 24–168 h
  time from which proliferation was significantly (p < 0.05) reduced compared to MT: ≥ 24 h
[3]; 0.5 × 10^5 cells/well
  CC50 at 24 h: 322 ± 3.74 µM
[3]; lower concentrations (37–100 μM), read-out: viability of L929 cells
  viability at 24 h: > 50%
[4]
  IC50: 61.4 ± 4.41 µM
[5]
  H2DCFDA MFI, Ex Vivo Amastigotes High Population: 140,636.20
  H2DCFDA MFI, Ex Vivo Amastigotes Low Population: 3151.50
[5]; MT/MC
  VIROS, Ex Vivo Amastigotes High Population: 0.90 ± 0.29
  VIROS, Ex Vivo Amastigotes Low Population: 1.28 ± 0.46
[6]; 10^5 cells/well, read-out: CC50 J744.G8
  CC50 at 24 h: 206 ± 9.19 µM
[6]; lower concentrations (37–100 μM), read-out: viability of J774.G8 cells
  viability at 24 h: > 50%
[7]
  CC50 at 24 h: 36 ± 3.69 µM
L. amazonensis
  increase in ROS levels: 2 fold
  reduction in ΔΨm: 60%
promastigotes
  IC50: 100 µM
[8]
  viability of promastigotes (AV/PI): 12.89%
[9]; 10^5 cells/well
  CC50 at 24 h: 141 ± 5.58 µM
[9]; [17]
  viability at 24 h: > 50%
[10]
  H2DCFDA MFI, Promastigotes High Population: 1,658,186.80 *
  H2DCFDA MFI, Promastigotes Low Population: 26,534.03
[11]
  cell death (7-AAD) in ex vivo amastigotes: highest mortality rate
[12]
  TMRE MFI, Promastigotes High Population: 56,878.47
  TMRE MFI, Promastigotes Low Population: 2737.60 *
[12]; (MT − MC)/MC
  VIΔΨm, Promastigotes High Population: 0.02 ± 0.03
[12]; (MT − MC)/MC, negative = depolarization
  VIΔΨm, Promastigotes Low Population: −0.41 ± 0.05
[13]; 48 h
  concentration from which significant reduction (p < 0.05) at 48 h: ≥ 50 µM
[13]; 72 h
  concentration from which total viability loss at 72 h: ≥ 12.50 µM
[14]; IC50, 24 h
  loss of potential (ΔΨm) in HP ex vivo amastigotes / mitochondrial depolarization: up to 61%
[14]; ex vivo amastigotes, LP plus HP, IC50, 24 h
  decrease of ΔΨm considering both subpopulations: 98%
[14]; exposed to IC50, 24 h
  TMRE MFI, ex vivo Amastigotes High Population: 317,106.50
  TMRE MFI, ex vivo Amastigotes Low Population: 3237.43
[14]; [18]
  VIΔΨm, ex vivo Amastigotes High Population: −0.61 ± 0.18
  VIΔΨm, ex vivo Amastigotes Low Population: −0.37 ± 0.32
[15]; 0.5 × 10^5 cells/well
  CC50 at 24 h: > 70 µM
[15]; [17]
  viability at 24 h: > 50%
HepG2 cells
  CC50: 96 ± 3.28 µM
[16]
  cytotoxicity in fibroblasts and macrophages: no cytotoxicity observed
